Read-outs that look alike come from different tables or passages of the source.
Assays:
TNFα = assay: IRAK4 Monocyte TNFα Cell Based Assay; parameters: species or system human; settings: Homo sapiens, Monocyte, human monocytes; second part of Table 2, compounds 33-343; unit inferred; read-out: EC50 MONO TNF HTRF
Summary of the method: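 Human monocytes (5,000/well) pretreated with compound 1 h at 37 °C (0.1% DMSO final), then stimulated with 50 pg/ml LPS for 4 h. Secreted TNFα measured by TR-FRET two-antibody detection after overnight incubation at room temperature; % control relative to unstimulated and LPS-stimulated wells.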

IRAK4 enzyme = IRAK4 enzyme (Homo sapiens (Human), UniProt Q9NWZ3); assay: IRAK4 Biochemical Assay (TR-FRET, STK1 KinEASE)
Sequence of IRAK4 enzyme (Q9NWZ3 whole entry): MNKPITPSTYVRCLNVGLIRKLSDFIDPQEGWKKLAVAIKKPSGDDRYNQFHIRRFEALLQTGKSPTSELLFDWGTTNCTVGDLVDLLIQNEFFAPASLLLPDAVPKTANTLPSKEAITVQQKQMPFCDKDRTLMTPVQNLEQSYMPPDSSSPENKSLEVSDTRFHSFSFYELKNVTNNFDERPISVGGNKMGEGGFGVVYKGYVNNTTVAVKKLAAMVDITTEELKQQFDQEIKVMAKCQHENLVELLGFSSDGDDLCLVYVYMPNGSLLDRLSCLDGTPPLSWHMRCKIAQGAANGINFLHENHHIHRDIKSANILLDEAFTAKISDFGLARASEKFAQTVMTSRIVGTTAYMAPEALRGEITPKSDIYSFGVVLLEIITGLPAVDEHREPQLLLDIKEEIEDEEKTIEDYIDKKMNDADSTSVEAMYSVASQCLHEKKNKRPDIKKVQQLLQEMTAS
Summary of the method: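 IRAK4 (0.75 nM) preincubated 15 min with compound and […] STK1 peptide, then started with 500 μM ATP in HEPES pH 7.0 buffer with MgCl2, DTT, BSA, NP-40; 120 min at room temperature.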

SMILES | EC50 (TNFα) | IC50 (IRAK4 enzyme; second part of Table 2, compounds 33-343, unit inferred, read-out: IC50 IRAK4-HTBS) | IC50 (IRAK4 enzyme)
CC(C)Nc1cc(-c2ccc3cc(C#N)cnn23)ncc1-c1nnc(CCN)s1 [Example 212, 7-(5-(5-(2-aminoethyl)-1,3,4-thiadiazol-2-yl)-4-(isopropylamino)pyridin-2-yl)pyrrolo[1,2-b]pyridazine-3-carbonitrile] | 305 nM | 1.01 nM | 
CC(C)Nc1cc(-c2ccc3cc(C#N)cnn23)ncc1-c1nnc(C(=O)N2CCC[C@@H]2CO)s1 [Example 214, (R)-7-(5-(5-(2-(hydroxymethyl)pyrrolidine-1-carbonyl)-1,3,4-thiadiazol-2-yl)-4-(isopropylamino)pyridin-2-yl)pyrrolo[1,2-b]pyridazine-3-carbonitrile] | 33.2 nM |  | 0.46 nM
CC(C)Nc1cc(-c2ccc3cc(C#N)cnn23)ncc1-c1nnc(C(=O)N2CC[C@H](CO)C2)s1 [Example 221, (S)-7-(5-(5-(3-(hydroxymethyl)pyrrolidine-1-carbonyl)-1,3,4-thiadiazol-2-yl)-4-(isopropylamino)pyridin-2-yl)pyrrolo[1,2-b]pyridazine-3-carbonitrile] | 2320 nM |  | 0.92 nM
CC(C)Nc1cc(-c2ccc3cc(C#N)cnn23)ncc1-c1nnc(C(=O)N2CC[C@@H](NC(=O)OC(C)(C)C)C2)s1 [Example 222, tert-butyl (R)-(1-(5-(6-(3-cyanopyrrolo[1,2-b]pyridazin-7-yl)-4-(isopropylamino)pyridin-3-yl)-1,3,4-thiadiazole-2-carbonyl)pyrrolidin-3-yl)carbamate] | 1780 nM |  | 1.79 nM
CC(C)Nc1cc(-c2ccc3cc(C#N)cnn23)ncc1-c1nnc(C(=O)N2CC[C@H](NC(=O)OC(C)(C)C)C2)s1 [Example 223, tert-butyl (S)-(1-(5-(6-(3-cyanopyrrolo[1,2-b]pyridazin-7-yl)-4-(isopropylamino)pyridin-3-yl)-1,3,4-thiadiazole-2-carbonyl)pyrrolidin-3-yl)carbamate] | 1360 nM |  | 1.43 nM
CC(=O)NC12CCC(c3nnc(-c4cnc(-c5ccc6cc(C#N)cnn56)cc4NC(C)C)s3)(CC1)C2 [Example 284, N-(4-(5-(6-(3-cyanopyrrolo[1,2-b]pyridazin-7-yl)-4-(isopropylamino)pyridin-3-yl)-1,3,4-thiadiazol-2-yl)bicyclo[2.2.1]heptan-1-yl)acetamide] | 17.6 nM |  | 0.69 nM
CC(C)Nc1cc(-c2ccc3cc(C#N)cnn23)ncc1-c1nnc(N2CC(C)(O)C2)s1 [Example 286, 7-(5-(5-(3-hydroxy-3-methylazetidin-1-yl)-1,3,4-thiadiazol-2-yl)-4-(isopropylamino)pyridin-2-yl)pyrrolo[1,2-b]pyridazine-3-carbonitrile] | 21.4 nM |  | 0.63 nM
CC(=O)NC12CCC(c3nnc(-c4cnc(-c5ccc6cc(C#N)cnn56)cc4NC(C)C)s3)(C1)C2 [Example 288, N-(4-(5-(6-(3-cyanopyrrolo[1,2-b]pyridazin-7-yl)-4-(isopropylamino)pyridin-3-yl)-1,3,4-thiadiazol-2-yl)bicyclo[2.1.1]hexan-1-yl)acetamide] | 19.8 nM |  | 0.72 nM
CC(C)Nc1cc(-c2ccc3cc(C#N)cnn23)ncc1-c1nnc(N2CC3CCC(C3)C2)s1 [Example 291, 7-(5-(5-(3-azabicyclo[3.2.1]octan-3-yl)-1,3,4-thiadiazol-2-yl)-4-(isopropylamino)pyridin-2-yl)pyrrolo[1,2-b]pyridazine-3-carbonitrile] | 59.3 nM |  | 1.78 nM
CC(C)Nc1cc(-c2ccc3cc(C#N)cnn23)ncc1-c1nnc(N2CC3(CCO3)C2)s1 [Example 293, 7-(5-(5-(1-oxa-6-azaspiro[3.3]heptan-6-yl)-1,3,4-thiadiazol-2-yl)-4-(isopropylamino)pyridin-2-yl)pyrrolo[1,2-b]pyridazine-3-carbonitrile] | 365 nM |  | 1.52 nM
CC(C)Nc1cc(-c2ccc3cc(C#N)cnn23)ncc1-c1nnc(N2CC3CCCC(C3)C2)s1 [Example 295, 7-(5-(5-(3-azabicyclo[3.3.1]nonan-3-yl)-1,3,4-thiadiazol-2-yl)-4-(isopropylamino)pyridin-2-yl)pyrrolo[1,2-b]pyridazine-3-carbonitrile] | 1000 nM |  | 57.7 nM
CC(=O)N[C@@H]1CCCN(c2nnc(-c3cnc(-c4ccc5cc(C#N)cnn45)cc3NC(C)C)s2)C1 [Example 296, (R)-N-(1-(5-(6-(3-cyanopyrrolo[1,2-b]pyridazin-7-yl)-4-(isopropylamino)pyridin-3-yl)-1,3,4-thiadiazol-2-yl)piperidin-3-yl)acetamide] | 1000 nM |  | 1.02 nM
CC(C)Nc1cc(-c2ccc3cc(C#N)cnn23)ncc1-c1nnc(N2CC(O)(C(F)(F)F)C2)s1 [Example 297, 7-(5-(5-(3-hydroxy-3-(trifluoromethyl)azetidin-1-yl)-1,3,4-thiadiazol-2-yl)-4-(isopropylamino)pyridin-2-yl)pyrrolo[1,2-b]pyridazine-3-carbonitrile] | 10 nM |  | 0.67 nM
CC(=O)NC1CCCN(c2nnc(-c3cnc(-c4ccc5cc(C#N)cnn45)cc3NC(C)C)s2)CC1 (centres unmarked) [Example 298, N-(1-(5-(6-(3-cyanopyrrolo[1,2-b]pyridazin-7-yl)-4-(isopropylamino)pyridin-3-yl)-1,3,4-thiadiazol-2-yl)azepan-4-yl)acetamide] | 36.3 nM |  | 0.61 nM
CC(=O)N[C@H]1CCCN(c2nnc(-c3cnc(-c4ccc5cc(C#N)cnn45)cc3NC(C)C)s2)C1 [Example 299, (S)-N-(1-(5-(6-(3-cyanopyrrolo[1,2-b]pyridazin-7-yl)-4-(isopropylamino)pyridin-3-yl)-1,3,4-thiadiazol-2-yl)piperidin-3-yl)acetamide] | 41.6 nM |  | 0.52 nM
CC(=O)N1C[C@H]2C[C@@H]1CN2c1nnc(-c2cnc(-c3ccc4cc(C#N)cnn34)cc2NC(C)C)s1 [Example 303, 7-(5-(5-((1R,4R)-5-acetyl-2,5-diazabicyclo[2.2.1]heptan-2-yl)-1,3,4-thiadiazol-2-yl)-4-(isopropylamino)pyridin-2-yl)pyrrolo[1,2-b]pyridazine-3-carbonitrile] | 12.5 nM |  | 0.51 nM
CNC(=O)C1CCN(c2nnc(-c3cnc(-c4ccc5cc(C#N)cnn45)cc3NC(C)C)s2)CC1 [Example 305, 1-(5-(6-(3-cyanopyrrolo[1,2-b]pyridazin-7-yl)-4-(isopropylamino)pyridin-3-yl)-1,3,4-thiadiazol-2-yl)-N-methylpiperidine-4-carboxamide] | 15.9 nM |  | 1.02 nM
CNc1cc(-c2ccc3cc(C#N)cnn23)ncc1-c1nnc(N2CC[C@@H](NC(C)=O)C(F)(F)C2)s1 [Example 306, (R)-N-(1-(5-(6-(3-cyanopyrrolo[1,2-b]pyridazin-7-yl)-4-(methylamino)pyridin-3-yl)-1,3,4-thiadiazol-2-yl)-3,3-difluoropiperidin-4-yl)acetamide] | 18.4 nM |  | 1.21 nM
CNc1cc(-c2ccc3cc(C#N)cnn23)ncc1-c1nnc(N2CC[C@H](NC(C)=O)C(F)(F)C2)s1 [Example 307, (S)-N-(1-(5-(6-(3-cyanopyrrolo[1,2-b]pyridazin-7-yl)-4-(methylamino)pyridin-3-yl)-1,3,4-thiadiazol-2-yl)-3,3-difluoropiperidin-4-yl)acetamide] | 53.7 nM |  | 0.83 nM

Reference: patent US11046686B2, “Thiadiazole IRAK4 compounds” (Gilead Sciences, Inc., priority 2018, dated 2021)
